From US9302999B2, “Substituted triazoles as herbicides” (E. I. DU PONT DE NEMOURS AND COMPANY, priority 2012, dated 2016)

Key:
Format in all cases: in vivo
[1] = system: barnyardgrass (Echinochloa crus-galli); test: Test A pre-/postemergence: barnyardgrass
In short: (§1)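 Visual 0–100 injury ratings (0 no effect, 100 complete control) taken about ten days after treatment, relative to untreated controls. Preemergence treatment was a directed soil spray; postemergence plants were 2–10 cm tall at one- to two-leaf stage. Soil: loam/sand blend.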

[2] = system: crabgrass, large (large crabgrass, Digitaria sanguinalis); test: Test A pre-/postemergence: crabgrass, large
In short: as §1

[3] = system: foxtail, giant (giant foxtail, Setaria faberii); test: Test A pre-/postemergence: foxtail, giant
In short: as §1

[4] = system: morningglory (Ipomoea spp.); test: Test A pre-/postemergence: morningglory
In short: as §1

[5] = system: pigweed (Amaranthus retroflexus); test: Test A pre-/postemergence: pigweed
In short: as §1

[6] = system: velvetleaf (Abutilon theophrasti); test: Test A pre-/postemergence: velvetleaf
In short: as §1

[7] = system: wheat (Triticum aestivum); test: Test A pre-/postemergence: wheat
In short: as §1

[8] = system: corn (Zea mays); test: Test A pre-/postemergence: corn
In short: as §1

[9] = system: rice (Oryza sativa); test: Test B flooded paddy: rice; settings: Flood, applied to paddy water at 2-leaf stage, visually evaluated after 13 to 15 days
In short: (§2)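 Two-leaf-stage plants, pots flooded (3 cm above soil) and treated through the water, which stayed at that depth. After 13–15 days in greenhouse conditions, visual assessment versus controls: 0 is no effect, 100 complete control, dash means no result.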

[10] = system: sedge, umbrella (small-flower umbrella sedge Cyperus difformis); test: Test B flooded paddy: sedge, umbrella; settings: Flood, applied to paddy water at 2-leaf stage, visually evaluated after 13 to 15 days
In short: as §2

[11] = system: ducksalad (Heteranthera limosa); test: Test B flooded paddy: ducksalad; settings: Flood, applied to paddy water at 2-leaf stage, visually evaluated after 13 to 15 days
In short: as §2

[12] = system: barnyardgrass (Echinochloa crus-galli); test: Test B flooded paddy: barnyardgrass; settings: Flood, applied to paddy water at 2-leaf stage, visually evaluated after 13 to 15 days
In short: as §2

[13] = Postemergence, 125 g ai/ha, 0 to 100 scale, 0 is no effect, 100 is complete control
[14] = Postemergence, 500 g ai/ha, 0 to 100 scale, 0 is no effect, 100 is complete control
[15] = Preemergence, 125 g ai/ha, 0 to 100 scale where 0 is no effect and 100 is complete control
[16] = Preemergence, 500 g ai/ha, 0 to 100 scale (0 no effect, 100 complete control)

SMILES | Plant response rating, Barnyardgrass [1, 13] | Barnyardgrass plant response rating [1, 14] | Plant response rating, Barnyardgrass [1, 15] | Plant response rating, Barnyardgrass [1, 16] | Plant response rating, Crabgrass, Large [2, 13] | Crabgrass, Large plant response rating [2, 14] | Plant response rating, Crabgrass, Large [2, 15] | Plant response rating, Crabgrass, Large [2, 16] | Plant response rating, Foxtail, Giant [3, 13] | Foxtail, Giant plant response rating [3, 14] | Plant response rating, Foxtail, Giant [3, 15] | Plant response rating, Foxtail, Giant [3, 16] | Plant response rating, Morningglory [4, 13] | Morningglory plant response rating [4, 14] | Plant response rating, Morningglory [4, 15] | Plant response rating, Morningglory [4, 16] | Plant response rating, Pigweed [5, 13] | Pigweed plant response rating [5, 14] | Plant response rating, Pigweed [5, 15] | Plant response rating, Pigweed [5, 16] | other results
CCCCOc1nn(-c2ccc(C(F)(F)F)cc2)nc1Cc1ccnc(C(F)(F)F)c1 [Compound 194] | 10 | 20 | 0 | 0 | 10 | 20 | 0 | 10 | 10 | 30 | 0 | 30 | 10 | 30 | 0 | 0 | 40 | 100 | 0 | 10 | Plant response rating, Velvetleaf [6, 13]: 30; Velvetleaf plant response rating [6, 14]: 50; Plant response rating, Velvetleaf [6, 15]: 0; Plant response rating, Velvetleaf [6, 16]: 0; Plant response rating, Wheat [7, 13]: 0; Wheat plant response rating [7, 14]: 20; Plant response rating, Wheat [7, 15]: 0; Plant response rating, Wheat [7, 16]: 0; Plant response rating, Corn [8, 13]: 0; Corn plant response rating [8, 14]: 20; Plant response rating, Corn [8, 15]: 0; Plant response rating, Corn [8, 16]: 0; Plant response rating, Rice (0 to 100 scale, 0 is no effect, 100 is complete control) ([9]; 125 g ai/ha): 0; Plant response rating, Sedge, Umbrella (0 to 100 scale, 0 is no effect, 100 is complete control) ([10]; 125 g ai/ha): 0; Plant response rating, Ducksalad (0 to 100 scale, 0 is no effect, 100 is complete control) ([11]; 125 g ai/ha): 0; Plant response rating, Barnyardgrass (0 to 100 scale, 0 is no effect, 100 is complete control) ([12]; 125 g ai/ha): 0
CC(=O)Oc1nn(-c2ccc(C(F)(F)F)cc2)nc1Cc1ccnc(C(F)(F)F)c1 [Compound 197] | 0 | 10 | 0 | 0 | 10 | 20 | 0 | 0 | 10 | 40 | 0 | 0 | 30 | 40 | 0 | 0 | 30 | 70 | 0 | 0 | Plant response rating, Velvetleaf [6, 13]: 20; Velvetleaf plant response rating [6, 14]: 30; Plant response rating, Velvetleaf [6, 15]: 0; Plant response rating, Velvetleaf [6, 16]: 0; Plant response rating, Wheat [7, 13]: 0; Wheat plant response rating [7, 14]: 0; Plant response rating, Wheat [7, 15]: 0; Plant response rating, Wheat [7, 16]: 0; Plant response rating, Corn [8, 13]: 0; Corn plant response rating [8, 14]: 20; Plant response rating, Corn [8, 15]: 0; Plant response rating, Corn [8, 16]: 0; Plant response rating, Rice (0 to 100 scale, 0 is no effect, 100 is complete control) ([9]; 250 g ai/ha): 0; Plant response rating, Sedge, Umbrella (0 to 100 scale, 0 is no effect, 100 is complete control) ([10]; 250 g ai/ha): 0; Plant response rating, Ducksalad (0 to 100 scale, 0 is no effect, 100 is complete control) ([11]; 250 g ai/ha): 0; Plant response rating, Barnyardgrass (0 to 100 scale, 0 is no effect, 100 is complete control) ([12]; 250 g ai/ha): 0
Oc1nn(-c2ccc(C(F)(F)F)cc2)nc1Cc1ccnc(C(F)(F)F)c1 [Compound 198] | 0 | 0 | 0 | 0 | 0 | 10 | 0 | 0 | 0 | 10 | 0 | 0 | 10 | 20 | 0 | 0 | 10 | 50 | 0 | 0 | Plant response rating, Velvetleaf [6, 13]: 10; Velvetleaf plant response rating [6, 14]: 10; Plant response rating, Velvetleaf [6, 15]: 0; Plant response rating, Velvetleaf [6, 16]: 0; Plant response rating, Wheat [7, 13]: 0; Wheat plant response rating [7, 14]: 0; Plant response rating, Wheat [7, 15]: 0; Plant response rating, Wheat [7, 16]: 0; Plant response rating, Corn [8, 13]: 0; Corn plant response rating [8, 14]: 10; Plant response rating, Corn [8, 15]: 0; Plant response rating, Corn [8, 16]: 0; Plant response rating, Rice (0 to 100 scale, 0 is no effect, 100 is complete control) ([9]; 250 g ai/ha): 0; Plant response rating, Sedge, Umbrella (0 to 100 scale, 0 is no effect, 100 is complete control) ([10]; 250 g ai/ha): 0; Plant response rating, Ducksalad (0 to 100 scale, 0 is no effect, 100 is complete control) ([11]; 250 g ai/ha): 0; Plant response rating, Barnyardgrass (0 to 100 scale, 0 is no effect, 100 is complete control) ([12]; 250 g ai/ha): 0
